{
  "source": "paper PMC4752462",
  "about": "(PLoS ONE, 2016)",
  "key": {"human liver microsomes": {"test_system": "human liver microsomes", "experiment": "Substrate (saturation) kinetics of EVG metabolism in human liver microsomes", "assay_type": "in vitro ADME", "method": "The reaction was carried out using human liver microsomes in 0.1 M potassium phosphate buffer at pH 7.4 as described previously. […] After pre-incubation at 37°C for 10 minutes, 3 mM final concentration of NADPH was added to initiate the metabolic reaction. After 7 minutes incubation at 37°C the reactions were terminated by adding 1:3 volumes of cold acetonitrile. For the time kinetic study, the reaction was terminated at various time points (0.0, 2.5, 5, 10, 15, 20, 30, and 60 minutes). […] The Prior to LCMS/MS analysis the analyte was extracted from the microsomes by a protein precipitation method as described previously. The concentrations of all the drugs were quantified using Ab Sciex Analyst® software. Microsomal kinetic data were analyzed using Michaelis-Menten and exponential decay equations. CYP3A4 inhibition data were evaluated by fitting the values to dose-response inhibition and calculated IC50 values were reported. All graphs were plotted and two-tailed t-tests were performed wherever appropriate using GraphPad Prism 5.01 (GraphPad, San Diego, CA). Significant differences between more than two groups analyzed with one-way ANOVA followed by Dunnett's multiple comparison tests using IBM […] version 20."}, "[1]": {"experiment": "Sample stability of EVG in the microsomal matrix (bench-top, freeze-thaw, long-term storage)", "assay_type": "physicochemical", "method": "Accuracy and precision of the method were determined by analyzing QC samples that cover the calibration curve range of the analyte. The low QC concentration was selected to be three times the LLOQ as per the FDA guidelines. Inter-day precision and accuracy were calculated by analyzing extracted calibration standards and three QCs at different concentrations as described in our previous publications. […] Carry-over (memory) effect was determined by assessing the extracted blank immediately after the upper limit of quantification (ULOQ, 1000 ng/ml). Matrix effect (ME), recovery efficiency (RE), and process efficiency (PE) were explored by following a previously proposed methodology. The three sets of samples used for the experiments were as follows: A, pure standard solutions of EVG; B, blank microsomal extraction spiked with pure standard solutions of EVG; C, microsomal samples spiked with pure standard solutions of EVG and extracted at the low, medium, and high QC concentrations. After quantitation of the analyte the parameters were calculated using the following formulae. ME (%) = B/A x 100, RE (%) = C/B x 100, PE (%) = C/A x 100. Furthermore, analyte peak areas were corrected with their respective IS peak areas and reported. Finally, sample stability studies for the EVG in the microsomal matrix was tested using low, medium, and high QCs at the bench-top (25°C) and storage conditions (-80°C). Analyte concentrations in these samples were measured after fresh preparation and at 12, 24, and 48 hours. […] For the long-term storage, samples were analyzed after storing them at the -80°C for three months. All determined concentrations were compared with freshly prepared QCs and reported the variation as a percentage of change from the freshly made QCs. The incurred sample reanalysis was also done by randomly selecting 10% of the total samples analyzed. The obtained data was compared with the first time results of the samples to determine whether the variability is beyond ± 20%."}, "human recombinant CYP3A4": {"target": "T1, human recombinant CYP3A4 (Homo sapiens, UniProt P08684)", "T1 construct": "purchased Life Technologies P2858; host or cells: baculosomes (baculovirus-infected insect cell microsomes)", "T1 sequence (P08684 whole entry)": "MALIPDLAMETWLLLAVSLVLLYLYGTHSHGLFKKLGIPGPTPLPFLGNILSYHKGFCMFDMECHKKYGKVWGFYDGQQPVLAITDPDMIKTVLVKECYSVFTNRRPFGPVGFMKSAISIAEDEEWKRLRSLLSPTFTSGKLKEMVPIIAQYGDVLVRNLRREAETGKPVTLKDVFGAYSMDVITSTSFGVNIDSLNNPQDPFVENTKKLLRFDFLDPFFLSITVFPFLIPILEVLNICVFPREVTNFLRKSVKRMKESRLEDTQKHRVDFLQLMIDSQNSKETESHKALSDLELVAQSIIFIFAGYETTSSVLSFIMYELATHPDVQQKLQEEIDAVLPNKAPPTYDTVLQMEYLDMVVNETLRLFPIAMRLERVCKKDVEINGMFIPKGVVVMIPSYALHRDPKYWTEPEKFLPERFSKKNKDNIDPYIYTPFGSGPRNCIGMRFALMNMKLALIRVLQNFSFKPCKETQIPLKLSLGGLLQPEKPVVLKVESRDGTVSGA", "experiment": "CYP3A4 inhibition, Vivid CYP450 blue screening kit with baculosomes", "assay_type": "biochemical", "conditions": "for CYP3A4 activity (Fig 5 data): control = 100", "method": "CYP3A4 inhibition assay was carried out by using Vivid® CYP450 Screening Kit from Life Technologies as recommended by the manufacturer (# P2858, Carlsbad, CA). This assay allows rapid measurement of interactions between drugs of interest and CYP enzymes based on their capability to inhibit the production of a fluorescent signal in reactions using CYP BACULOSOMES® Plus Reagents and specific Vivid® Substrates. Briefly, the assay was conducted in a 96-well assay plate. […] The final concentrations of 2.5, 5, 7.5, 10, 25, 50, 75, and 100 μM were achieved by diluting the stocks in 1X Vivid® CYP reaction buffer. […] For ethanol only experiment, 2.5, 5, […], 20, 30, and 50 mM final concentrations were used. The final concentration of acetonitrile in each reaction was 0.01% in 100 μl final reaction volume. The fluorescence was immediately measured using a microplate reader (Cytation™ 5 Cell Imaging Multi-Mode Reader, BioTek, VT) at the 415/460 nm excitation and emission wavelengths.\nThe concentrations of all the drugs were quantified using Ab Sciex Analyst® software. Microsomal kinetic data were analyzed using Michaelis-Menten and exponential decay equations. CYP3A4 inhibition data were evaluated by fitting the values to dose-response inhibition and calculated IC50 values were reported. All graphs were plotted and two-tailed t-tests were performed wherever appropriate using GraphPad Prism 5.01 (GraphPad, San Diego, CA). Significant differences between more than two groups analyzed with one-way ANOVA followed by Dunnett’s multiple comparison tests using IBM SPSS […] version 20. A p value <0.05 was considered significant compared to respective controls. The original data and/or statistical analyses for Michaelis-Menten Kinetics, drug metabolism and half-life determination, inhibition studies, and ligand docking are provided in the supporting information (S1 file)."}, "[2]": {"conditions": "plasma pharmacokinetics; cited from earlier work"}, "[3]": {"conditions": "three values per group used for statistics"}},
  "note": "Several values for one entry are separate records, joined by “and”; a condition that tells them apart may be missing. Equal entries are not always repeated.",
  "data": [
    {"smiles": "COc1cc2c(cc1Cc1cccc(Cl)c1F)c(=O)c(C(=O)O)cn2[C@H](CO)C(C)C", "note": "[EVG, Elvitegravir]", "values": [
      {"measurement": "enzyme activity (Fig 4 data)", "setting": "human liver microsomes; EVG 4", "value": 3.7, "unit": "μmol/min/mg protein"},
      {"measurement": "enzyme activity (Fig 4 data)", "setting": "human liver microsomes; EVG 8", "value": 7.7, "unit": "μmol/min/mg protein"},
      {"measurement": "enzyme activity (Fig 4 data)", "setting": "human liver microsomes; EVG 20", "value": 19.5, "unit": "μmol/min/mg protein"},
      {"measurement": "enzyme activity (Fig 4 data)", "setting": "human liver microsomes; EVG 40", "value": 38.6, "unit": "μmol/min/mg protein"},
      {"measurement": "enzyme activity (Fig 4 data)", "setting": "human liver microsomes; EVG 60", "value": 55.9, "unit": "μmol/min/mg protein"},
      {"measurement": "enzyme activity (Fig 4 data)", "setting": "human liver microsomes; EVG 80", "value": 68.9, "unit": "μmol/min/mg protein"},
      {"measurement": "enzyme activity (Fig 4 data)", "setting": "human liver microsomes; EVG 100", "value": 74.7, "unit": "μmol/min/mg protein"},
      {"measurement": "enzyme activity (Fig 4 data)", "setting": "human liver microsomes; EVG 120", "value": 71.9, "unit": "μmol/min/mg protein"},
      {"measurement": "enzyme activity (Fig 4 data)", "setting": "human liver microsomes; EVG 160", "value": 70.9, "unit": "μmol/min/mg protein"},
      {"measurement": "enzyme activity (Fig 4 data)", "setting": "human liver microsomes; EVG 200", "value": 84.3, "unit": "μmol/min/mg protein"},
      {"measurement": "Vmax", "setting": "human liver microsomes; EVG alone", "value": "162 ± 16", "unit": "μmol/min/mg protein"},
      {"measurement": "Vmax", "setting": "human liver microsomes; in the presence of ethanol", "value": "221 ± 18", "unit": "μmol/min/mg protein"},
      {"measurement": "Km", "setting": "human liver microsomes; [3]", "value": "65.2 µM and 68.7 µM"},
      {"measurement": "Vmax", "setting": "human liver microsomes; [3]", "value": "162.1 and 157.8 and 158.3"},
      {"measurement": "Vmax", "setting": "human liver microsomes; when COBI is present", "value": "308 ± 45", "unit": "μmol/min/mg protein"},
      {"measurement": "long term storage stability", "setting": "[1]; -80°C, 3-4 months, data not shown", "value": "did not exhibit significant loss in the concentration"},
      {"measurement": "change from freshly prepared quality controls", "setting": "[1]; Freeze thaw (-80°C), cycle 1, High QC 3.50 μM", "value": -3, "unit": "%"},
      {"measurement": "change from freshly prepared quality controls", "setting": "[1]; Freeze thaw (-80°C), cycle 1, Low QC 0.040 μM", "value": -12, "unit": "%"},
      {"measurement": "change from freshly prepared quality controls", "setting": "[1]; Freeze thaw (-80°C), cycle 1, Medium QC 0.75 μM", "value": 5, "unit": "%"},
      {"measurement": "change from freshly prepared quality controls", "setting": "[1]; Freeze thaw (-80°C), cycle 2, High QC 3.50 μM", "value": 3, "unit": "%"},
      {"measurement": "change from freshly prepared quality controls", "setting": "[1]; Freeze thaw (-80°C), cycle 2, Low QC 0.040 μM", "value": -7, "unit": "%"},
      {"measurement": "change from freshly prepared quality controls", "setting": "[1]; Freeze thaw (-80°C), cycle 2, Medium QC 0.75 μM", "value": 3, "unit": "%"},
      {"measurement": "change from freshly prepared quality controls", "setting": "[1]; Freeze thaw (-80°C), cycle 3, High QC 3.50 μM", "value": -15, "unit": "%"},
      {"measurement": "change from freshly prepared quality controls", "setting": "[1]; Freeze thaw (-80°C), cycle 3, Low QC 0.040 μM", "value": -3, "unit": "%"},
      {"measurement": "change from freshly prepared quality controls", "setting": "[1]; Freeze thaw (-80°C), cycle 3, Medium QC 0.75 μM", "value": 5, "unit": "%"},
      {"measurement": "change from freshly prepared quality controls", "setting": "[1]; Room Temp (25°C), 0 hours, High QC 3.50 μM", "value": 0, "unit": "%"},
      {"measurement": "change from freshly prepared quality controls", "setting": "[1]; Room Temp (25°C), 0 hours, Low QC 0.040 μM", "value": 0, "unit": "%"},
      {"measurement": "change from freshly prepared quality controls", "setting": "[1]; Room Temp (25°C), 0 hours, Medium QC 0.75 μM", "value": 0, "unit": "%"},
      {"measurement": "change from freshly prepared quality controls", "setting": "[1]; Room Temp (25°C), 12 hours, High QC 3.50 μM", "value": 0.1, "unit": "%"},
      {"measurement": "change from freshly prepared quality controls", "setting": "[1]; Room Temp (25°C), 12 hours, Low QC 0.040 μM", "value": -14, "unit": "%"},
      {"measurement": "change from freshly prepared quality controls", "setting": "[1]; Room Temp (25°C), 12 hours, Medium QC 0.75 μM", "value": 9, "unit": "%"},
      {"measurement": "change from freshly prepared quality controls", "setting": "[1]; Room Temp (25°C), 24 hours, High QC 3.50 μM", "value": 1.8, "unit": "%"},
      {"measurement": "change from freshly prepared quality controls", "setting": "[1]; Room Temp (25°C), 24 hours, Low QC 0.040 μM", "value": -10, "unit": "%"},
      {"measurement": "change from freshly prepared quality controls", "setting": "[1]; Room Temp (25°C), 24 hours, Medium QC 0.75 μM", "value": 4, "unit": "%"},
      {"measurement": "change from freshly prepared quality controls", "setting": "[1]; Room Temp (25°C), 48 hours, High QC 3.50 μM", "value": -0.4, "unit": "%"},
      {"measurement": "change from freshly prepared quality controls", "setting": "[1]; Room Temp (25°C), 48 hours, Low QC 0.040 μM", "value": -5, "unit": "%"},
      {"measurement": "change from freshly prepared quality controls", "setting": "[1]; Room Temp (25°C), 48 hours, Medium QC 0.75 μM", "value": 7, "unit": "%"},
      {"measurement": "stability at room temperature", "setting": "[1]; microsomal matrix, over 48 hours", "value": "considered stable"},
      {"measurement": "percentage of variation in the freeze-thaw stability studies", "setting": "[1]; up to 3-4 freeze-thaw cycles", "value": "less than 15%"},
      {"measurement": "CYP3A4 activity (Fig 5 data)", "setting": "human recombinant CYP3A4; EVG 2.5 uM", "value": 77.957},
      {"measurement": "CYP3A4 activity (Fig 5 data)", "setting": "human recombinant CYP3A4; EVG 5 uM", "value": 63.9794},
      {"measurement": "CYP3A4 activity (Fig 5 data)", "setting": "human recombinant CYP3A4; EVG 7.5 uM", "value": 59.992},
      {"measurement": "CYP3A4 activity (Fig 5 data)", "setting": "human recombinant CYP3A4; EVG 10 uM", "value": 55.6409},
      {"measurement": "CYP3A4 activity (Fig 5 data)", "setting": "human recombinant CYP3A4; EVG 25 uM", "value": 40.6332},
      {"measurement": "CYP3A4 activity (Fig 5 data)", "setting": "human recombinant CYP3A4; EVG 50 uM", "value": 32.8987},
      {"measurement": "CYP3A4 activity (Fig 5 data)", "setting": "human recombinant CYP3A4; EVG 75 uM", "value": 28.0321},
      {"measurement": "CYP3A4 activity (Fig 5 data)", "setting": "human recombinant CYP3A4; EVG 100 uM", "value": 18.7817},
      {"measurement": "IC50", "setting": "human recombinant CYP3A4; EVG with ethanol at 20 mM", "value": "17.5 ± 1.5", "unit": "µM"},
      {"measurement": "IC50", "setting": "human recombinant CYP3A4; EtOH 20 mM, COBI at concentration matching EVG unless 0.04 μM stated", "value": "13 µM and 13.1 µM"},
      {"measurement": "IC50", "setting": "human recombinant CYP3A4; With Ethanol, three values per group", "value": "19 µM and 16.5 µM"},
      {"measurement": "increase in the IC50 by ethanol", "setting": "human recombinant CYP3A4; ethanol at 20 mM compared to EVG alone", "value": 34, "unit": "%"},
      {"measurement": "plasma half-life", "setting": "[2]", "value": "2 to 3", "unit": "h"}
    ]}
  ]
}
